Data set [1] is described as follows: Two-week stability test of solvent / Warden CX mixtures (viscosity, density). As to conditions: mixture with Warden CX; for Post: Density / Post: Viscosity: after two weeks at 54° C., 4° C. and/or −10° C.; for Pre: Viscosity: before two-week stability test. In kind it is physicochemical. How it is done:
The same seven solvent compositions were then evaluated for their compatibility with Warden® CX, which is a combination of fungicide and insecticide (containing a proprietary solvent) formulated for soybean seed treatment and sold by Winfield® United. Specifically, 0.5 fl. oz./cwt. of each experimental solvent was added to 50 mL of Warden® CX. […] The mixtures were then evaluated for stability by placing the samples at 54° C., 4° C. and/or at −10° C. for a two-week period. Viscosity levels were measured before and after the two-week stability test, along with the post-test density levels, and the results shown below in Table 6.

The nature of data set [2]: Active ingredient loading of PGR components in solvent compositions by HPLC. The format is physicochemical. The source says: To understand if changing the active component loading rate would impact the biological performance of the PGR compositions, two solvent compositions, methoxy propanol and tetrahydrofuryl alcohol, were mixed with various PGR compositions (4×) selected for their favorable solubility properties, curing properties, and compatibility with Rhizobia. Propylene glycol was again included as a control sample, and each composition was mixed with BHT (4×). Citric acid was excluded from all samples. The weight percentage of each PGR component mixed with each solvent composition is shown below in Table 7.
The HPLC was performed using an Agilent 1260 device with a diode-array detector for active component quantification.
[…]. As shown, the deviation was less than 1% for each composition.

The conditions of data set [3]: from SDS of each solvent, cited from earlier work.
Data set [4] in a line: Viscosity of solvent compositions (modular compact rheometer). In kind it is physicochemical. As to conditions: solvent mixed with 0.1 wt % BHT and 4x PGR composition; 25° C. How it is done:
(§1) Propylene glycol was used as a control. The evaluated solvents, along with the mass of each PGR component and BHT, are shown below in Table 4. The density and viscosity of the solvent compositions were then determined. The density measurements were obtained using a DMA™ 4500, which was calibrated using 20° C. DI water. Viscosity was determined using a modular compact rheometer. Viscosity levels were measured at 25° C.

The nature of data set [5]: Density of solvent compositions (DMA 4500). The format is physicochemical. As to conditions: solvent mixed with 0.1 wt % BHT and 4x PGR composition. How it is done:
as §1

Where two headings read alike, the source gives them in different places.

Consider `COCC(C)O` (centres unmarked) [1-methoxy-2-propanol], for which the “change of viscosity over the two-week period” value in data set [1] is on record as “decreasing the most”. For the same molecule, the “Post: Density” value in data set [1] amounted to 1.0440 g/mL. The “Post: Viscosity” value in data set [1] is listed as 106.18 cPa. For the same molecule, in data set [1], the “Pre: Viscosity” value was 1764.63 cPa. Besides, the “Aux. by HPLC” value came out at 0.674% in data set [2] (1st composition of Table 7, auxin added 0.6596%); 0.630% in data set [2] (2nd composition of Table 7, auxin added 0.6136%); 0.531% in data set [2] (3rd composition of Table 7, auxin added 0.5215%); 0.502% in data set [2] (4th composition of Table 7, auxin added 0.4985%); 0.579% in data set [2] (5th composition of Table 7, auxin added 0.5675%). Further, the “Cyt. by HPLC” value stood at 0.072% in data set [2] (1st composition of Table 7, cytokinin added 0.0614%); 0.126% in data set [2] (2nd composition of Table 7, cytokinin added 0.1074%); 0.178% in data set [2] (3rd composition of Table 7, cytokinin added 0.1534%); 0.235% in data set [2] (4th composition of Table 7, cytokinin added 0.1994%); 0.130% in data set [2] (5th composition of Table 7, cytokinin added 0.1074%). Besides, the “Gib. by HPLC” value was found to be 0.046% in data set [2] (1st composition of Table 7, gibberellin added 0.0460%); 0.045% in data set [2] (2nd composition of Table 7, gibberellin added 0.0460%); 0.088% in data set [2] (3rd composition of Table 7, gibberellin added 0.0920%); 0.069% in data set [2] (4th composition of Table 7, gibberellin added 0.0690%); 0.089% in data set [2] (5th composition of Table 7, gibberellin added 0.0920%). Further, the “Boiling Point” value in data set [3] was 118 C. °. Besides, the Density in data set [3] is given as 0.916 g/mL. Besides, the “Flash Point” value in data set [3] is on record as 34 C. °.

On to `CCCCCOC(C)=O` [Amyl Acetate], for which, in data set [3], the “Boiling Point” value was 149 C. °, the Density is recorded as 0.87 g/mL, the “Flash Point” value was 40 C. ° and the Solubility entry is on record as “Insoluble”. For the same molecule, the Viscosity in data set [3] is given as 1.58 cP.

Regarding `CCCCOC(=O)C(C)O` (centres unmarked) [Butyl lactate], in data set [4], the Viscosity came to 5.0736 cPa. In data set [1], the “Post: Density” value was determined as 1.1067 g/mL, the “Post: Viscosity” value is listed as 387.57 cPa and the “Pre: Viscosity” value worked out at 901.94 cPa. Further, in data set [3], the “Boiling Point” value was 186 C. °, the Density is on record as 0.984 g/mL, the “Flash Point” value is listed as 69 C. ° and the Solubility result is recorded as “Slightly”.

Molecule `CCCCOCCOCCO` [Diethylene glycol butyl ether] showed a Viscosity in data set [4] of 7.7338 cPa. Moreover, in data set [1], the “Post: Density” value is 1.0486 g/mL, the “Post: Viscosity” value is on record as 45.06 cPa and the “Pre: Viscosity” value amounted to 112.48 cPa. Also, in data set [3], the “Boiling Point” value is reported as 228 C. °, the Density is 0.953 g/mL, the “Flash Point” value is 99 C. ° and the Solubility result was “Miscible”.

With `CCOC(C)=O` [Ethyl acetate], in data set [3], the “Boiling Point” value is reported as 77 C. °, the “Flash Point” value was −4.4 C. ° and the Solubility result is recorded as “Miscible”.

As for `CCCCOCCO` [Ethylene glycol butyl ether, 2-butoxyl ethanol], in data set [1], the “Post: Density” value was determined as 1.0263 g/mL, the “Post: Viscosity” value amounted to 69.69 cPa and the “Pre: Viscosity” value was 138.49 cPa. Further, in data set [3], the “Boiling Point” value is recorded as 171 C. °, the Density is recorded as 0.902 g/mL and the “Flash Point” value is recorded as 67 C. °.

Take `CC(=O)OCC(COC(C)=O)OC(C)=O` [Glyceryl triacetate]: in data set [3], the “Boiling Point” value is recorded as 259 C. °, the Density was 1.158 g/mL, the “Flash Point” value was 148 C. ° and the Solubility entry is given as “Soluble”. Besides, in data set [3] (listed as glyceryl triacetate), the Solubility result is listed as “soluble”.

On to `CCCCC(CC)COC(=O)C(C)O` (centres unmarked) [Lactic acid, 2-ethylhexyl ester], for which, in data set [3], the “Boiling Point” value is on record as 122 C. ° and the Density is recorded as 1.2 g/mL.

As for `CC(=O)OCCCCCCC=O` [Oxo-heptyl acetate], in data set [3], the “Boiling Point” value is recorded as 192 C. °, the Density is 0.886 g/mL, the “Flash Point” value is 43 C. ° and the Solubility result is listed as “Slightly”.

As for `CC(O)CO` (centres unmarked) [Propylene Glycol, reference compound], in data set [3], the “Boiling Point” value is listed as 205 C. °, the Density was 1.12 g/mL, the “Flash Point” value was 138 C. ° and the Solubility entry is given as “Soluble”. Also, in data set [3] (listed as propylene glycol), the Solubility result is given as “soluble”.

`OCC1CCCO1` (centres unmarked) [Tetrahydrofurfyl Alcohol] had a Density in data set [5] of 1.0548 g/mL. Further, the Viscosity in data set [4] was 5.4046 cPa. For the same molecule, in data set [1], the “Post: Density” value is 1.0825 g/mL, the “Post: Viscosity” value worked out at 150.59 cPa and the “Pre: Viscosity” value worked out at 962.75 cPa. Also, the “Aux. by HPLC” value in data set [2] (6th composition of Table 7, auxin added 0.4958%) amounted to 0.497%. Moreover, the “Cyt. by HPLC” value in data set [2] (6th composition of Table 7, cytokinin added 0.094%) came out at 0.108%. For the same molecule, in data set [2] (6th composition of Table 7, gibberellin added 0.0804%), the “Gib. by HPLC” value was found to be 0.081%. Moreover, in data set [3], the “Boiling Point” value was 178 C. °, the Density is on record as 1.054 g/mL, the “Flash Point” value is 75 C. ° and the Solubility result is on record as “Miscible”.

With Ethyl hexanol, in data set [3], the “Boiling Point” value is given as 185 C. °, the Density is listed as 0.833 g/mL and the “Flash Point” value was 75 C. °.

(Values after patent US11812753B2, “Solvent compositions promoting plant growth” (priority 2020, dated 2023).)
